The record followed here is the supplement of paper PMC11451515.

Holding throughout (experiment): AUC of viability dose-response curve (% viability x log10 dose units); higher = less sensitive
What all share (settings): 48 h

In one assay the test system is NOMO1. Summed up: (§1)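 Over 48 h at 37°C, leukemia cells in 1536-well plates (500 or 1000 cells/well), adapted to each medium, received library compounds in DMSO at 11 threefold doses from 47 μM to 0.79 nM. CellTiter-Glo One luminescence, normalised per plate to DMSO and cell-free wells, was fitted by a four-parameter log-logistic function of log10 dose. The area under the curve was then integrated by trapezoidal rule, after scaling curves above full viability and removing those that failed quality control.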

A further assay relates to P12-Ichikawa. Summed up: as §1
In a further assay the test system is SEM cells. Summed up: as §1
The mark [1] stands for this setting: RPMI 5 mM glucose + 10% dialyzed FBS.

Regarding `CN(C)[C@H]\1[C@@H]2[C@@H](O)[C@H]3\C(=C(O)/[C@]2(O)C(=O)\C(=C1O)C(N)=O)C(=O)C4=C(C=CC=C4O)[C@@]3(C)O`, the “AUC of viability dose-response curve” value in the assay on NOMO1 (HPLM + 10% dialyzed FBS) amounted to 448; in the assay on NOMO1 (RPMI 5 mM glucose + 10% FBS) it was 459; with NOMO1 (setting [1]) it was 449; in the assay with P12-Ichikawa (HPLM + 10% dialyzed FBS), 454; in the assay on P12-Ichikawa (RPMI 5 mM glucose + 10% FBS), 456; with P12-Ichikawa (setting [1]), 421. The results for the “AUC of viability dose-response curve” value in the assay on SEM cells (HPLM + 10% dialyzed FBS), in the assay on SEM cells (RPMI 5 mM glucose + 10% FBS) and with SEM cells (setting [1]) were 459, 463 and 476, respectively.
In the case of `COc1ccccc1N1CCN(CC(O)COc2cccc3ccccc23)CC1` (stereo not drawn), the “AUC of viability dose-response curve” value in the assay with NOMO1 (HPLM + 10% dialyzed FBS) is 450; with NOMO1 (RPMI 5 mM glucose + 10% FBS), 448; in the assay on NOMO1 (setting [1]) it was 431; in the assay on P12-Ichikawa (HPLM + 10% dialyzed FBS), 467; in the assay with P12-Ichikawa (RPMI 5 mM glucose + 10% FBS) it was 439; in the assay with P12-Ichikawa (setting [1]), 441. In addition, the “AUC of viability dose-response curve” value in the assay on SEM cells (HPLM + 10% dialyzed FBS) turned out to be 473; in the assay with SEM cells (RPMI 5 mM glucose + 10% FBS), 455; in the assay with SEM cells (setting [1]), 449.
Take `COc1ccc2c(c1)CC[C@@H](CN(C)CC(=O)O)[C@H]2c1ccccc1`: the “AUC of viability dose-response curve” value was 409 with NOMO1 (HPLM + 10% dialyzed FBS); 407 with NOMO1 (RPMI 5 mM glucose + 10% FBS); 411 in the assay with NOMO1 (setting [1]); 368 in the assay on P12-Ichikawa (HPLM + 10% dialyzed FBS); 369 in the assay with P12-Ichikawa (RPMI 5 mM glucose + 10% FBS); 390 with P12-Ichikawa (setting [1]). For the same compound, the “AUC of viability dose-response curve” value was found to be 373 in the assay with SEM cells (HPLM + 10% dialyzed FBS), 362 in the assay on SEM cells (RPMI 5 mM glucose + 10% FBS) and 385 with SEM cells (setting [1]).
Take `CCOC\1=C(/C(=O)NC2=CC=C(OC3=C(Cl)C(=NC=C3)N)C(=C2)F)C(=O)N(\C=C1)C4=CC=C(F)C=C4`: the “AUC of viability dose-response curve” value with NOMO1 (HPLM + 10% dialyzed FBS) worked out at 415; in the assay on NOMO1 (RPMI 5 mM glucose + 10% FBS), 446; with NOMO1 (setting [1]) it was 440; in the assay on P12-Ichikawa (HPLM + 10% dialyzed FBS), 444; with P12-Ichikawa (RPMI 5 mM glucose + 10% FBS), 447; in the assay on P12-Ichikawa (setting [1]), 431. Moreover, the “AUC of viability dose-response curve” value amounted to 328 in the assay on SEM cells (HPLM + 10% dialyzed FBS), 309 with SEM cells (RPMI 5 mM glucose + 10% FBS) and 300 in the assay on SEM cells (setting [1]).
On to `CC/C(=C(\c1ccccc1)c1ccc(OCCN(C)C)cc1)c1ccccc1`, for which the “AUC of viability dose-response curve” value in the assay with NOMO1 (HPLM + 10% dialyzed FBS) came out at 457; in the assay with NOMO1 (RPMI 5 mM glucose + 10% FBS), 458; in the assay on NOMO1 (setting [1]), 450; in the assay on P12-Ichikawa (HPLM + 10% dialyzed FBS), 472; in the assay on P12-Ichikawa (RPMI 5 mM glucose + 10% FBS), 461; in the assay on P12-Ichikawa (setting [1]), 465. For the same compound, the entries for the “AUC of viability dose-response curve” value in the assay on SEM cells (HPLM + 10% dialyzed FBS), with SEM cells (RPMI 5 mM glucose + 10% FBS) and with SEM cells (setting [1]) were 434, 425 and 435, respectively.
In the case of `Clc1ccc(C(Cn2ccnc2)OCc2ccsc2Cl)c(Cl)c1` (stereo not drawn), the “AUC of viability dose-response curve” value is 470 in the assay with NOMO1 (HPLM + 10% dialyzed FBS); 476 in the assay on NOMO1 (RPMI 5 mM glucose + 10% FBS); 457 in the assay on NOMO1 (setting [1]); 467 in the assay on P12-Ichikawa (HPLM + 10% dialyzed FBS); 461 in the assay on P12-Ichikawa (RPMI 5 mM glucose + 10% FBS); 464 with P12-Ichikawa (setting [1]). Also, the “AUC of viability dose-response curve” value in the assay with SEM cells (HPLM + 10% dialyzed FBS) was found to be 456; in the assay on SEM cells (RPMI 5 mM glucose + 10% FBS), 467; in the assay on SEM cells (setting [1]), 463.
As for `NC(=O)Cc1cccc(C(=O)c2ccccc2)c1N`, the “AUC of viability dose-response curve” value was 461 with NOMO1 (HPLM + 10% dialyzed FBS); 435 in the assay with NOMO1 (RPMI 5 mM glucose + 10% FBS); 436 in the assay on NOMO1 (setting [1]); 468 with P12-Ichikawa (HPLM + 10% dialyzed FBS); 456 in the assay with P12-Ichikawa (RPMI 5 mM glucose + 10% FBS); 455 in the assay with P12-Ichikawa (setting [1]). Further, the “AUC of viability dose-response curve” value in the assay with SEM cells (HPLM + 10% dialyzed FBS) was found to be 433; in the assay on SEM cells (RPMI 5 mM glucose + 10% FBS), 404; in the assay on SEM cells (setting [1]), 428.
